In patent US7803764B2, “Amphipathic glycopeptides” (The Arizona Board of Regents on Behalf of the University of …, priority 2004, dated 2010):
Entries after “also recorded” stand apart in the source; their conditions may differ.

How the values were obtained:
δ opioid receptor = δ opioid receptor (Homo sapiens, UniProt P41143); assay: opioid receptor binding, δ receptor
μ opioid receptor = μ opioid receptor (Homo sapiens, UniProt P35372); assay: opioid receptor binding, μ receptor
[1] = in vivo antinociception after i.c.v. administration; set-up: species or system mice; details: for A50 i.c.v.: antinociception
[2] = helicity by circular dichroism; format: physicochemical
Description: Circular Dichroism. All of the circular dichroism experiments were carried out on Aviv Associates model 60DS using an Endcal Model RTE4DD water circulator as a temperature-control vehicle. The instrument was calibrated by using d-10-camphorsulphonic acid. The spectra were recorded between 200 and 250 nm by using the continuous mode with a 1.5 nm bandwidth, a three second response and a scan step of 0.5 nm in a cell with a path length of 0.1 cm. Three or five scans were accumulated and averaged for each spectrum. Glycopeptide stock solutions were prepared by weighing the required amount, using Cahn/Ventron Instruments Model 21 automatic analytical electrobalance, to make 1 mL of a 0.5-1.0 mM solution and the pH was adjusted to the desired value. Samples were prepared by diluting the stock solution to 70-80 μM. All observed spectra were baseline-subtracted and smoothed by adjacent average of 5 points using Microcal Origin Ver. 5.0 software (Microcal Software Inc, USA). The molar ellipticities were determined using the formula [θ]=[θ]obs·(MRW)/10·l·C, where [θ]obs observed ellipticity in millidegrees, MRW is the mean residue weight, l is the cell path length in centimeters and C is the glycopeptide concentration in mg/mL. The percent α-helicity was determined by using the formula % helix=[θ]n→π*/−40,000 (1−2.5/n)·100, where n represents the number of amide bonds (including the C-terminal amide) in the glycopeptide and [θ]n→π** is molar ellipticity of n→π* transition band at 222 nm.^55
Conformational Analysis by CD. Circular dichroism (CD) is a powerful and simple tool for identifying secondary structure in both peptides and proteins.^64 All the peptides were subjected to CD analysis in H2O, TFE-H2O mixtures, SDS micelles and phospholipid bicelles. In H2O, a negative band near 200 nm is observed that arises from the π→π* electronic transition and is typical of random coil peptides. […] This behavior is explained as nascent helices.^65 In these nascent helices, helix CD signals could be induced by the addition of TFE.^66 All the glycopeptides gave an increased helix CD signal in TFE. The percentage of helicity increases as TFE concentration increases, but reached a maximum at 30% TFE. The increase in helicity in TFE can be attributed to decreased competition by H2O for hydrogen bonding to the backbone amides. […] In the presence of SDS micelles and anionic bicelles, the band at 200 nm underwent a red shift (higher value) and an additional shoulder appears around 222 nm as a result of the n→π* transition. […] The negative maxima at 222 nm (n→π* transition band) is used to calculate the helical content of polypeptides and proteins. The accepted value for a peptide that is 100% helical is approximately −35,000. It was observed that changes in amplitude of the bands up to 30% depend on length of helix.^67 The amplitude increases as α-helical chain length increases. Therefore, one has to consider the importance of chain-length dependence of the α-helix CD in the quantitative treatment of helix content in proteins and polypeptides. The percentage of helicity is independent of SDS concentration and pH (data not shown). In the presence of zwitterionic bicelles all of the glycopeptides yielded CD spectra similar to that observed in H2O, but anionic bicelles forced them to become more helical. The intensities of the [θ]π→π* band and the [θ]n→π* band are expected to be almost equal for a perfect α-helical peptide. […] A modest blue shift and reduced intensity for the [θ]n→π* transition bands are observed for all the glycopeptides in TFE. […] The glycopeptides 9 (Pro/Glc) and 12 (Pro/Lactose), which differ only by the sugar moiety attached, adopt perfect helices in the presence of SDS micelles and in anionic bicelles. The disaccharide increased the percentage of helicity in all the solvents, relative to the monosaccharide. […] It is remarkable to note that a single amino acid mutation at position 6 produced profound changes in the CD spectra. […]

water solubility = details: H2O
[3] = Plasmon-waveguide resonance (PWR) binding to lipid bilayer; details: egg PC bilayer, 25° C., read-out: dissociation constant KD for lipid bilayer
Description: Plasmon-waveguide resonance (PWR) spectroscopy. The PWR instrument used for these experiments was Aviv Beta prototype version device obtained from Proterion Corp. (Piscataway, N.J.) having a spectral resolution of 1 millidegree. Self-assembled so lid-supported lipid membranes were prepared according to the method used for the formation of freely suspended lipid bilayers.^62 This involves spreading a small amount of lipid solution across an orifice in a Teflon sheet that separates the thin dielectric film (SiO2) from the aqueous phase. The hydrophilic surface of hydrated SiO2 attracts the polar groups of the lipid molecules, thus inducing an initial orientation of the lipid molecules, with the hydrocarbon chains pointing toward the droplet of excess lipid solution. The next steps of bilayer formation, induced by adding aqueous buffer to the sample compartment of the PWR cell, involve a thinning process and the formation of a plateau-Gibbs border of lipid solution that anchors the membrane to the Teflon spacer. In the present experiments, the lipid films were formed from a solution containing 5 mg/ml egg phosphatidylcholine (PC) in squalene/butanol/methanol (0.05:9.5:0.5, v/v). […] Aliquots of the glycosylated peptides, dissolved in deionized water, were injected stepwise in the PWR cell sample and the signal monitored until equilibrium was reached (PWR signal steady). […]

[4] = helicity by NMR αCH chemical shift index; format: physicochemical
Description: NMR Spectroscopy. All NMR spectra were recorded on a Bruker DRX600 600 MHz spectrometer. Glycopeptide concentration for the NMR experiments varied from 2-3 mM. The glycopeptides were prepared in TFE-water solution by dissolving the peptide in 0.6 ml solution of a premixed 30% TFE-water mixture. The micelle samples were prepared by dissolving the glycopeptide and 100 equivalent of perdeuterated SDS in 0.6 ml of H2O/D2O (9:1 ratio by volume). Bicelles were produced from deuterated phospholipids. The zwitterionic bicelles were made by mixing the short chain phospholipid dihexanoyl-sn-glycero-3-phosphatidylcholine-d22 (DHPC) and the long chain 1,2-dimyristoyl-sn-glycero-3-phosphatidylcholine-d54 (DMPC) in the molar ratio of 2:1 in H2O. The […] were prepared by substituting 10 mol % of 1,2-dimyristoyl-sn-glycero-3-phospho-1-glycerol-d54 (DMPG) for DMPC. The glycopeptide to bicelle ratio was 1:25. After the glycopeptide was added to the bicelle solution, the system was submitted to a series o f three freeze/thaw/slight vortex shaking cycles. The pH of the each sample was adjusted to 4.5 by using DCl or NaOD as necessary. TSP (3-(trimethylsilyl)-d4-propionic acid) was added as an internal standard. The experiments in F3CCD2OD/H2O mixtures were at 293 K and for experiments in micelles/bicelles were at 298 or 311 K. Two-dimensional double quantum filtered correlation (DQF-COSY), rotating-frame Overhauser enhancement^56 (ROESY), Nuclear Overhauser enhancement^57 (NOESY), and total correlation spectra^58 (TOCSY) were acquired using standard pulse sequences and processed using XWINNMR (Bruker Inc) and FELIX2000 (Accelrys Inc, San Diego, Calif.), Mixing times for TOCSY spectra were either 80 or 100 ms. Mixing times for ROESY spectra were 150 or 250 ms, and for NOESY spectra were 200 or 300 ms. All experiments were 750 increments in t1, 16/32/64 scans each, 1.5 s relaxation delay, size 2 or 4K, and the spectral processing was with shifted sine bell window multiplications in both dimensions.
αCH Chemical Shift Index. […] At this point there is no accepted random coil αCH values for glycosylated serine, CSI values for this position are uncertain. The conformational shift values for all solvents were obtained using the random coil values described by Wright and co-workers.^72 Although, these reference shifts were obtained at pH=5.0 at 4.2° C., they appear to be very insensitive to the conditions, as very small deviations (±0.04) were observed when random coil values are obtained at pH=7.0 at 35° C. by Wuthrich and co-workers.^68 The quantification of secondary structure based on αCH chemical shifts is neglected in the literature because various contributions cannot be strictly accounted for, such as electrostatic effects, ring current shifts, and other magnetic anisotropies. However, it is possible to make qualitative comparison of helical content between closely related (glyco)peptides. Since the 3rd generation glycopeptides differ by only one amino acid at position 6, the helical content was obtained based on the αCH chemical shift values (Table 3). The method described by Gierasch and co-workers^69a was used. First, the average conformational shift was calculated for each glycopeptide by adding all upfield shifts in the helical regions and dividing by the total number of peptide bonds. Then, to obtain the overall helical content for each glycopeptide, the average conformational shift was divided by 0.35 ppm, which was assigned for 100% helicity. Since, there are no random coil values available for β-Alanine and glycosylated serine residues, they were not included in the calculation. The helicogenic Aib residue lacks an α-proton, and there was no correction included in the calculation for the helicity provided by Aib residue. The helical content obtained by this method correlated with the helical content obtained by CD. […]

[5] = blood-brain barrier uptake / penetration; details: mice
[6] = solvent Bicelle A (anionic bicelles)

Chain of δ opioid receptor (P41143 whole entry): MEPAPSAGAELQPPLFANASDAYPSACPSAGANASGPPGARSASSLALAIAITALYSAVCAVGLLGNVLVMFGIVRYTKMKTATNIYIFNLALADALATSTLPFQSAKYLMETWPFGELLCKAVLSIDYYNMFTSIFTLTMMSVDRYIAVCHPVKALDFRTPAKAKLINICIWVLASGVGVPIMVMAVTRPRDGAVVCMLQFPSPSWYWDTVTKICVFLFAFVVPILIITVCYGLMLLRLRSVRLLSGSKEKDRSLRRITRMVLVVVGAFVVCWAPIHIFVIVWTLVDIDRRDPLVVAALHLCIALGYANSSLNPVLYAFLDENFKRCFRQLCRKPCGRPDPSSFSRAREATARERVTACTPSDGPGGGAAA
Chain of μ opioid receptor (P35372 whole entry): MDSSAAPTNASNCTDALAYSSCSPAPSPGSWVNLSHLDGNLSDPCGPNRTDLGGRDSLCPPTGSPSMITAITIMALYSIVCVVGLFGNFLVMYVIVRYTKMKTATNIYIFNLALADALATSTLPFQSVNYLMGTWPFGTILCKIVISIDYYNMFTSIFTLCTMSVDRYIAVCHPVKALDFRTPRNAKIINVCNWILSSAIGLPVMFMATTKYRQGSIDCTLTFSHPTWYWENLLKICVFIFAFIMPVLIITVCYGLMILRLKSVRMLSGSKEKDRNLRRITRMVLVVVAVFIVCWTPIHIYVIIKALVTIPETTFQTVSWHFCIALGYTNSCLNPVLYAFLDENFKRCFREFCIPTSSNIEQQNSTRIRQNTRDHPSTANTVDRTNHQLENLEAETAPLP

Row | Compound | IC50 (δ opioid receptor) [µM] | receptor selectivity (in words) (δ opioid receptor; δ versus μ, receptor binding assays) | IC50 (μ opioid receptor) [µM] | potency relative to morphine ([1]; i.c.v. administration, more potent than morphine) | A50 value after i.c.v. administration ([1]; i.c.v., mice) [pmoles per mouse] | A50 i.c.v. ([1]; i.c.v., mice) [nmol] | % α-helicity ([2]; CD, SDS micelles (30 mM), pH = 7.0, 18° C.) [%] | water solubility (water solubility) | Kd [3] [µM] | % α-helicity by CD [2, 6] [%] | % α-helicity by CD ([2]; solvent H2O) [%] | % α-helicity by CD ([2]; solvent SDS micelles) [%] | % α-helicity by CD ([2]; solvent TFE) [%] | % α-helicity by NMR ([4]; solvent Bicelle A) [%] | % α-helicity by NMR ([4]; solvent H2O) [%] | % α-helicity by NMR ([4]; solvent SDS micelles) [%] | % α-helicity by NMR ([4]; solvent TFE) [%] | BBB uptake [5] | blood brain barrier penetration (in words) [5]
1 | CC(C)C[C@H](NC(=O)[C@H](C)NC(=O)[C@H](CC(N)=O)NC(=O)[C@H](Cc1ccccc1)NC(=O)[C@H](Cc1c[nH]c2ccccc12)NC(=O)[C@H](CCCCN)NC(=O)[C@H](CO[C@@H]1O[C@H](CO)[C@@H](O)[C@H](O)[C@H]1O)NC(=O)[C@H](C)NC(=O)[C@H](CC(C)C)NC(=O)[C@H](CCC(=O)O)NC(=O)CNC(=O)[C@H](CC(C)C)NC(=O)[C@H](Cc1ccccc1)NC(=O)CNC(=O)[C@H](NC(=O)[C@@H](N)Cc1ccc(O)cc1)[C@H](C)O)C(=O)N[C@@H](CCC(=O)O)C(=O)N[C@@H](CO[C@@H]1O[C@H](CO)[C@@H](O)[C@H](O)[C@H]1O)C(N)=O (relative stereo) [Glycopeptide 2, YtGFLGELAS*KWFNALES*] | 0.0095 | somewhat δ-selective | 0.144 | roughly 18 times | 120 | 0.27 | 67 | appreciable water solubility; also recorded: significant solubility in water | – | – | – | – | – | – | – | – | – | – | –
2 | CC(C)C[C@H](NC(=O)[C@H](CO[C@@H]1O[C@H](CO)[C@@H](O)[C@H](O)[C@H]1O)NC(=O)[C@H](CCCCN)NC(=O)[C@H](CC(C)C)NC(=O)[C@H](C)NC(=O)[C@H](CCCCN)NC(=O)[C@H](CCC(=O)O)NC(=O)C(C)(C)NC(=O)[C@H](CC(C)C)NC(=O)[C@H](CC(N)=O)NC(=O)[C@@H]1CCCN1C(=O)[C@H](CC(C)C)NC(=O)[C@H](Cc1ccccc1)NC(=O)CNC(=O)[C@H](NC(=O)[C@@H](N)Cc1ccc(O)cc1)[C@H](C)O)C(N)=O (relative stereo) [Glycopeptide 9, YtGFLPNLBEKALKS*L] | 0.00615 | – | 0.0908 | – | – | 0.030 | – | – | 0.007 to 0.008 | 25 | >1 | 24 | 18 | 44 | 20 | 46 | 30 | 0.390 microliters per min per gram of cortex | efficiently cross the blood brain barrier; also recorded: much better BBB penetration rates; also recorded: best BBB penetration
3 | CC(C)C[C@H](NC(=O)[C@H](CO[C@@H]1O[C@H](CO)[C@@H](O)[C@H](O)[C@H]1O)NC(=O)[C@H](CCCCN)NC(=O)[C@H](CC(C)C)NC(=O)[C@H](C)NC(=O)[C@H](CCCCN)NC(=O)[C@H](CCC(=O)O)NC(=O)C(C)(C)NC(=O)[C@H](CC(C)C)NC(=O)[C@H](CC(N)=O)NC(=O)CNC(=O)CNC(=O)[C@H](CC(C)C)NC(=O)[C@H](Cc1ccccc1)NC(=O)CNC(=O)[C@H](NC(=O)[C@@H](N)Cc1ccc(O)cc1)[C@H](C)O)C(N)=O (relative stereo) [Glycopeptide 11, YtGFLGGNLBEKALKS*L] | 0.0325 | – | 0.053 | – | – | 0.030 | – | – | 30 | 17 | >1 | 17 | 18 | – | 19 | 39 | 28 | 0.002 microliters per min per gram of cortex | did not; also recorded: low BBB penetration rates
